Columns and labels:
[1] = Ferric reducing antioxidant power (FRAP) assay; set-up: key to FRAP TEAC: trolox equivalents (TEAC), relative to trolox; details: for FRAP nmol Fe2+ at 30 µM: 30 µM compound, n in brackets; for FRAP TEAC: 30 µM, relative to trolox
Procedure: A ferric reducing antioxidant power (FRAP) kit assay purchased from Sigma-Aldrich (Madrid, Spain) was employed for the experiments. The antioxidant solutions, FRAP assay buffer solution, FeCl3 solution, and FRAP probe solution were kept in ice during the preparation of the plate. A calibration standard curve was prepared by using the 2 mM ferrous standard solution provided in the FRAP kit assay. Appropriate aliquots of this solution were taken and diluted up to a 200 μL final volume with FRAP buffer. The final ferrous concentrations measured in the well were: 0, 20, 40, 60, 80, and 100 μM. Each concentration value was prepared and measured by triplicate. Stock solutions of compounds 3, as well as reference compounds trolox and ferulic acid, were freshly prepared in 95% ethanol at […]. Aliquots of 10 μL of compounds 3 and the reference compounds were mixed with 19 μL FeCl3 solution and 19 μL FRAP probe solution, and then completed to a final volume of 200 μL with FRAP assay buffer solution. The final concentration of antioxidants and references was 30 μM. Compounds 3, reference compounds, as well as the corresponding blank solutions (one for each compound to be assayed, avoiding the chromogenic FRAP probe), and positive control were thoroughly mixed in vortex for 1–2 min with the reaction chromogenic media, and then were incubated under darkness at 37 °C in the dry bath, and using the device for support well-plates. Each compound to be assayed and the reference antioxidant compounds were prepared and measured by triplicate. The absorbance values were measured at 594 nm after 5 min of reaction and, to assure complete reaction, the absorbance values after 60 min of incubation at 37 °C in the dry bath were also measured. The absorbance values of the sample antioxidant compounds were corrected by subtracting the corresponding absorbance values of the blanks, and then they were introduced in the calibration curve and the ferrous equivalents were determined. The reference antioxidants employed for this assay were trolox and ferulic acid, which were obtained from Sigma-Aldrich (Madrid, Spain). Ultrapure water was obtained from a Milli-Q Direct 8 system (Millipore, Molsheim, France).
In order to achieve a broader insight into the antioxidant profile of our compounds, we also examined them using a single electron transfer (SET)-based method, namely the ferric reducing antioxidant power (FRAP) assay, which measures the ability of an antioxidant to reduce the ferric ion in the TPTZ (2,4,6-tri(2-pyridyl)-1,3,5-triazine)-Fe(III) complex.

[2] = system: neuroblastoma SHSY5Y cells; assay: Cytotoxicity in SHSY5Y cells (MTT reduction); type: cell-based; details: MTT reduction
Procedure: SH-SY5Y cells (ECACC 94030304, Porton Down, Salisbury, UK), from passages between 4 and 16 after defreezing, were maintained in a MEM/F12 containing […] nonessential amino acids and supplemented with 10% fetal bovine serum (FBS), glutamine 1 mM, 50 units/mL of penicillin, and 50 μg/mL of streptomycin (GIBCO, Madrid, Spain). Cells were harvested in a […] flask and incubated at 37 °C with wet atmosphere and 5% CO2, carrying out passages 1:4 twice a week. For neuroprotection experiments, cells were seeded in 96-well plates at a density of 60,000 cells/well. For the toxicity experiments, cells were treated with the compounds under assay before reaching confluence, in MEM/F12 with 1% FBS.
Due to their presumed electrophilicity, the neurotoxicity of our compounds was investigated by investigating their influence on cell viability in the neuroblastoma SHSY5Y cell line prior to other studies in cell cultures. […] It is relevant to note that, despite their reputation for toxicity, interest in covalent drugs has undergone a renaissance, and about 30% of the recently marketed drugs belong to this class.

SH-SY5Y cells [3] = assay: Neuroprotection against rotenone/oligomycin A in SH-SY5Y cells (MTT); type: cell-based; details: Homo sapiens, 24 h, 1 µM compound, rotenone 30 µM + oligomycin A 10 µM, read-out: % Neuroprotection ± SEM at 1 µM (rotenone/oligomycin A)
Procedure: To evaluate the compounds for their neuroprotective effect in an oxidative stress model, we selected the rotenone (30 μM) and oligomycin A (10 μM) (R/O) cocktail, which disturbs the flow of electrons in the mitochondrial respiratory chain. Similarly, SH-SY5Y cells were preincubated with compounds 3 at 1 μM for 24 h. Then, they were co-incubated in the presence of R/O for a further 24 h, evaluating cell viability by the MTT reduction method.
Thus, the R/O combination constitutes a good model of oxidative stress and neurodegeneration with a mitochondrial origin, and has been broadly employed to evaluate potential hit compounds for the treatment of neurodegenerative diseases. Furthermore, treatment of laboratory animals with rotenone is known to induce many features associated to Parkinson’s disease, such as selective nigrostriatal dopaminergic degeneration and the appearance of α-synuclein cytoplasmic inclusions, which are associated with oxidative damage.

SH-SY5Y cells [4] = assay: Neuroprotection against okadaic acid in SH-SY5Y cells (MTT); type: cell-based; details: Homo sapiens, SH-SY5Y, 18 h; 1 µM compound; okadaic acid 20 nM; read-out: % Neuroprotection ± SEM at 1 µM (okadaic acid)
Procedure: Neuroprotection studies against tau hyperphosphorylation exerted by okadaic acid (OA) were evaluated using the SH-SY5Y cell line as follows. […] After 18 h, cell viability was addressed by the MTT reduction method. MTT (5 mg/mL, 10 μL/well) was added and incubated for 2 h. Then, the medium was removed and the purple formazan crystals formed by viable cells were dissolved using 100 μL of DMSO. A FluoStar Optima spectrophotometer (BMG Labtech, Ortenberg, Baden-Württemberg, Germany) was used to measure the absorbance at 570 nm.
Okadaic acid is a potent inhibitor of protein phosphatase 2A (PP2A), thereby inducing tau hyperphosphorylation. For this reason, it can be employed as a model of neurodegenerative-disease-connected tau hyperphosphorylation, a well-known feature of Alzheimer’s disease, but present also in other NDDs, collectively known as tauopathies and characterized by the pathological aggregation of hyperphosphorylated tau in neurofibrillary tangles. […] Tau hyperphosphorylation is connected to oxidative stress, which activates p38 and deactivates calcineurin, a phosphatase involved in tau dephosphorylation by increasing RCAN1, its natural repressor [34, 35]. Indeed, hyperphosphorylation and oxidative stress have been proposed to generate a vicious circle that is critical to the advance of neurodegenerative tauopathies.

## COC(=O)C1=C(C)N(CCc2ccc(OC)c(OC)c2)C(=O)/C1=C\c1ccc(OCc2ccc(Cl)cc2)c(OC)c1 [Compound 3m, Methyl (Z)-4-[4-((4-Chlorobenzyl)oxy)-3-methoxybenzylidene]-1-(3,4-dimethoxyphenethyl)-2-methyl-5-oxo-4,5-dihydro-1H-pyrrole-3-carboxylate]
[1]
  FRAP nmol Fe2+ at 30 µM: 1.59 ± 0.05 (3) nmol Fe^2+
  FRAP TEAC: 0.70
[2]
  LD50: >100 µM
SH-SY5Y cells [3]
  % neuroprotection against rotenone/oligomycin A toxicity at 1 µM: 41.2 ± 18.9%
SH-SY5Y cells [4]
  % neuroprotection against okadaic acid at 1 µM: 40.7 ± 9.85%

## COC(=O)C1=C(C)N(CCc2ccc(OC)c(OC)c2)C(=O)/C1=C\c1ccc(OCc2ccccc2Cl)c(OC)c1 [Compound 3n, Methyl (Z)-4-[4-((2-Chlorobenzyl)oxy)-3-methoxybenzylidene]-1-(3,4-dimethoxyphenethyl)-2-methyl-5-oxo-4,5-dihydro-1H-pyrrole-3-carboxylate]
[1]
  FRAP nmol Fe2+ at 30 µM: 1.59 ± 0.02 (3) nmol Fe^2+
  FRAP TEAC: 0.69
[2]
  LD50: >100 µM
SH-SY5Y cells [3]
  % neuroprotection against rotenone/oligomycin A toxicity at 1 µM: 69.4 ± 23.9%
SH-SY5Y cells [4]
  % neuroprotection against okadaic acid at 1 µM: 61.4 ± 15.8%

## COC(=O)C1=C(C)N(CCc2ccccc2)C(=O)/C1=C\c1c[nH]c2ccccc12 [Compound 3o, Methyl (Z)-4-((1H-Indol-3-yl)methylene)-2-methyl-5-oxo-1-phenethyl-4,5-dihydro-1H-pyrrole-3-carboxylate]
[1]
  FRAP nmol Fe2+ at 30 µM: 1.80 ± 0.07 (3) nmol Fe^2+
  FRAP TEAC: 0.79
[2]
  LD50: >100 µM
SH-SY5Y cells [3]
  % neuroprotection against rotenone/oligomycin A toxicity at 1 µM: > 90%
SH-SY5Y cells [4]
  % neuroprotection against okadaic acid at 1 µM: 46.3 ± 13.6%

From PMC8230565, “Bisavenathramide Analogues as Nrf2 Inductors and Neuroprotectors in In Vitro Models of Oxidative Stress and Hyperphosphorylation” (Antioxidants, 2021)
